Measurements from the RepoRT retention time repository (doi:10.1016/j.jchromb.2020.122105).

What was measured:
Conditions in all cases: stereoisomer not certain
[1] = RP, Waters CORTECS T3, 100 × 2.1 mm, 2.7 µm, 0.3 mL/min, estimated dead time 0.73 min; A: water + 0.1% formic acid, pH 3; B: methanol + 0.1% formic acid, pH 3; gradient (min/%B) 0/0 1/0 6/5 30/100 35/100 35.1/0 40/0
[2] = RP, Waters ACQUITY UPLC BEH C18, 100 × 2.1 mm, 1.7 µm, 0.1 mL/min, estimated dead time 2.2 min; A: water + 0.1% formic acid, pH 3; B: methanol + 0.1% formic acid, pH 3; gradient (min/%B) 0/5 5/5 25/95 25.1/100 35/100 35.1/5 45/5
[3] = RP, Waters CORTECS T3, 100 × 2.1 mm, 2.7 µm, 0.15 mL/min, estimated dead time 1.5 min; A: water + 0.1% formic acid, pH 3; B: methanol + 0.1% formic acid, pH 3; gradient (min/%B) 0/0 1/0 6/5 30/100 35/100 35.1/0 40/0
[4] = HILIC, Merck SeQuant ZIC-HILIC, 150 × 2.1 mm, 5 µm, 0.75 mL/min, estimated dead time 0.44 min; A: water + 10 mM ammonium formate, pH 6; B: 5% water + 95% acetonitrile + 10 mM ammonium formate, pH 6; gradient (min/%B) 0/95 5/95 20/57 25/57 30/95 40/95
[5] = RP, Waters CORTECS T3, 100 × 2.1 mm, 2.7 µm, 0.3 mL/min, estimated dead time 0.73 min; A: water + 0.1% formic acid, pH 3; B: methanol + 0.1% formic acid, pH 3; gradient (min/%B) 0/5 5/5 25/95 25.1/100 35/100 35.1/5 45/5
[6] = RP, Waters ACQUITY UPLC BEH C18, 100 × 2.1 mm, 1.7 µm, 0.1 mL/min, estimated dead time 2.2 min; A: water + 0.1% formic acid, pH 3; B: methanol + 0.1% formic acid, pH 3; gradient (min/%B) 0/5 5/5 25/100 30/100 30.1/5 35/5
[7] = RP, Waters CORTECS T3, 100 × 2.1 mm, 2.7 µm, 0.2 mL/min, estimated dead time 1.1 min; A: water + 0.1% formic acid, pH 3; B: methanol + 0.1% formic acid, pH 3; gradient (min/%B) 0/0 1/0 6/5 30/100 35/100 35.1/0 40/0
[8] = RP, Thermo Scientific Hypercarb, 150 × 2.1 mm, 5 µm, 0.1 mL/min, estimated dead time 3.3 min; A: water + 0.1% formic acid, pH 3; B: methanol + 0.1% formic acid, pH 3; gradient (min/%B) 0/5 5/5 20/100 35/100 35.1/5 45/5
[9] = RP, Waters CORTECS T3, 100 × 2.1 mm, 2.7 µm, 0.3 mL/min, estimated dead time 0.73 min; A: water + 0.1% formic acid, pH 3; B: methanol + 0.1% formic acid, pH 3; gradient (min/%B) 0/0 5/0 25/100 30/100 30.1/0 35/0
[10] = RP, Waters CORTECS T3, 100 × 2.1 mm, 2.7 µm, 0.3 mL/min, estimated dead time 0.73 min; A: water + 0.1% formic acid, pH 3; B: methanol + 0.1% formic acid, pH 3; gradient (min/%B) 0/5 5/5 25/100 30/100 30.1/5 35/5
[11] = HILIC, Waters XBridge BEH Amide, 100 × 2.1 mm, 2.5 µm, 0.5 mL/min, estimated dead time 0.44 min; A: water + 0.1% acetic acid + 10 mM ammonium acetate, pH 4; B: 5% water + 95% acetonitrile + 0.1% acetic acid + 10 mM ammonium acetate, pH 4; gradient (min/%B) 0/95 5/95 20/57 25/57 30/95 40/95
[12] = RP, Waters ACQUITY UPLC BEH C18, 100 × 2.1 mm, 1.7 µm, 0.1 mL/min, estimated dead time 2.2 min; A: water + 0.045% formic acid + 0.11% ammonium hydroxide, pH 7; B: methanol; gradient (min/%B) 0/5 5/5 25/95 25.1/100 35/100 35.1/5 45/5
[13] = RP, Waters CORTECS T3, 100 × 2.1 mm, 2.7 µm, 0.1 mL/min, estimated dead time 2.2 min; A: water + 0.1% formic acid, pH 3; B: methanol + 0.1% formic acid, pH 3; gradient (min/%B) 0/0 1/0 6/5 30/100 35/100 35.1/0 40/0
[14] = RP, Waters CORTECS T3, 100 × 2.1 mm, 2.7 µm, 0.25 mL/min, estimated dead time 0.88 min; A: water + 0.1% formic acid, pH 3; B: methanol + 0.1% formic acid, pH 3; gradient (min/%B) 0/0 1/0 6/5 30/100 35/100 35.1/0 40/0
[15] = HILIC, Merck SeQuant ZIC-HILIC, 150 × 2.1 mm, 5 µm, 0.75 mL/min, estimated dead time 0.44 min; A: water + 0.1% acetic acid + 10 mM ammonium acetate, pH 4; B: 5% water + 95% acetonitrile + 0.1% acetic acid + 10 mM ammonium acetate, pH 4; gradient (min/%B) 0/95 5/95 20/57 25/57 30/95 40/95
[16] = RP, Waters ACQUITY UPLC BEH C18, 100 × 2.1 mm, 1.7 µm, 0.2 mL/min, estimated dead time 1.1 min; A: water + 0.025% formic acid + 20 mM ammonium acetate + 0.055% ammonium hydroxide, pH 7; B: methanol; gradient (min/%B) 0/5 5/5 25/100 30/100 30.1/5 35/5
[17] = RP, Waters CORTECS T3, 100 × 2.1 mm, 2.7 µm, 0.1 mL/min, estimated dead time 2.2 min; A: water + 0.1% formic acid, pH 3; B: methanol + 0.1% formic acid, pH 3; gradient (min/%B) 0/5 5/5 25/95 25.1/100 35/100 35.1/5 45/5
[18] = RP, Waters ACQUITY UPLC BEH C18, 100 × 2.1 mm, 1.7 µm, 0.2 mL/min, estimated dead time 1.1 min; A: water + 0.025% formic acid + 20 mM ammonium acetate + 0.055% ammonium hydroxide, pH 7; B: methanol; gradient (min/%B) 0/5 5/5 25/100 30/100 30.1/5 35/5; remark: listed apart in the source
[19] = RP, Waters CORTECS T3, 100 × 2.1 mm, 2.7 µm, 0.2 mL/min, estimated dead time 1.1 min; A: water + 0.045% formic acid + 0.11% ammonium hydroxide, pH 7; B: methanol; gradient (min/%B) 0/5 5/5 25/95 25.1/100 35/100 35.1/5 45/5
[20] = RP, Waters CORTECS T3, 100 × 2.1 mm, 2.7 µm, 0.2 mL/min, estimated dead time 1.1 min; A: water + 0.1% formic acid, pH 3; B: methanol + 0.1% formic acid, pH 3; gradient (min/%B) 0/5 5/5 25/95 25.1/100 35/100 35.1/5 45/5
[21] = RP, Waters CORTECS T3, 100 × 2.1 mm, 2.7 µm, 0.3 mL/min, estimated dead time 0.73 min; A: water + 0.1% formic acid, pH 3; B: methanol + 0.1% formic acid, pH 3; gradient (min/%B) 0/0 1/0 6/5 30/100 35/100 35.1/0 40/0; remark: listed apart in the source
[22] = RP, Waters CORTECS T3, 100 × 2.1 mm, 2.7 µm, 0.2 mL/min, estimated dead time 1.1 min; A: water + 0.1% formic acid, pH 3; B: methanol + 0.1% formic acid, pH 3; gradient (min/%B) 0/0 1/0 6/5 30/100 35/100 35.1/0 40/0; remark: listed apart in the source
[23] = RP, Waters CORTECS T3, 100 × 2.1 mm, 2.7 µm, 0.3 mL/min, estimated dead time 0.73 min; A: water + 0.1% formic acid, pH 3; B: methanol + 0.1% formic acid, pH 3; gradient (min/%B) 0/0 5/0 25/100 30/100 30.1/0 35/0; remark: listed apart in the source
[24] = RP, Waters CORTECS T3, 100 × 2.1 mm, 2.7 µm, 0.15 mL/min, estimated dead time 1.5 min; A: water + 0.1% formic acid, pH 3; B: methanol + 0.1% formic acid, pH 3; gradient (min/%B) 0/5 5/5 25/95 25.1/100 35/100 35.1/5 45/5
[25] = RP, Waters CORTECS T3, 100 × 2.1 mm, 2.7 µm, 0.25 mL/min, estimated dead time 0.88 min; A: water + 0.1% formic acid, pH 3; B: methanol + 0.1% formic acid, pH 3; gradient (min/%B) 0/5 5/5 25/95 25.1/100 35/100 35.1/5 45/5
[26] = RP, Waters ACQUITY UPLC BEH C18, 100 × 2.1 mm, 1.7 µm, 0.2 mL/min, estimated dead time 1.1 min; A: water + 0.1% formic acid, pH 3; B: methanol + 0.1% formic acid, pH 3; gradient (min/%B) 0/5 5/5 25/100 30/100 30.1/5 35/5
[27] = RP, Waters ACQUITY UPLC BEH C18, 100 × 2.1 mm, 1.7 µm, 0.1 mL/min, estimated dead time 2.2 min; A: water + 0.1% formic acid, pH 3; B: methanol + 0.1% formic acid, pH 3; gradient (min/%B) 0/5 5/5 25/95 25.1/100 35/100 35.1/5 45/5; remark: listed apart in the source

LC retention time [1] [min] | LC retention time [2] [min] | LC retention time [3] [min] | LC retention time [5] [min] | LC retention time [6] [min] | LC retention time [7] [min] | LC retention time [8] [min] | LC retention time [9] [min] | LC retention time [10] [min] | LC retention time [11] [min] | LC retention time [12] [min] | LC retention time [13] [min] | LC retention time [14] [min] | LC retention time [15] [min] | LC retention time [16] [min] | LC retention time [17] [min] | LC retention time [18] [min] | LC retention time [19] [min] | LC retention time [20] [min] | LC retention time [26] [min] | SMILES | other results
11.4 | 15.6 | 14.5 | 9.92 | 15.4 | 13 | – | 11.1 | 9.85 | 0.91 | 15.6 | 11.6 | 12.1 | 0.95 | 11.9 | 15.2 | 11.9 | 11.7 | – | – | NC(=O)Cc1c[nH]c2ccccc12 [INDOLE-3-ACETAMIDE] | –
14.8 | 18.6 | 17.9 | 13.1 | 18.2 | 16.4 | – | 13.8 | 12.9 | – | 11.3 | 14.7 | 15.5 | – | – | 18.2 | – | – | – | – | O=C([O-])Cc1c[nH]c2ccccc12 [INDOLE-3-ACETATE] | –
0.92 | 2.66 | 1.87 | 0.9 | 2.74 | 1.38 | 18.5 | 0.93 | 0.93 | 14.5 | – | – | 1.13 | 13.8 | – | – | 1.36 | – | 2.74 | 1.42 | CCC(NC(=O)CCC(N)C(=O)O)C(=O)NCC(=O)O (stereo unspecified) [OPHTHALMIC ACID] | LC retention time [21]: 0.96 min; LC retention time [22]: 1.38 min; LC retention time [23]: 0.93 min; LC retention time [24]: 1.78 min; LC retention time [25]: 1.08 min; LC retention time [27]: 2.7 min
29.7 | 30.2 | 31.9 | 26.1 | 29.5 | 30.7 | – | 25.3 | 25.1 | – | 29.5 | 26.5 | 30.1 | – | 25.4 | 30.1 | – | 25.9 | – | – | C=Cc1c(C)c2cc3[nH]c(cc4nc(cc5nc(cc1[nH]2)C(C)=C5CCC(=O)O)C(CCC(=O)O)=C4C)c(C)c3C=C [PROTOPORPHYRIN] | –
0.92 | 2.66 | 1.83 | 0.9 | 2.74 | 1.34 | 15.7 | 0.89 | – | – | – | – | 1.09 | – | 7.17 | – | – | – | 2.67 | 1.38 | NC(=O)C1CCCN1C(=O)C(Cc1cnc[nH]1)NC(=O)C1CCC(=O)N1 (stereo unspecified) [THYROTROPIN RELEASING HORMONE] | LC retention time [27]: 2.7 min

SMILES | LC retention time [1] [min] | LC retention time [2] [min] | LC retention time [3] [min] | LC retention time [5] [min] | LC retention time [6] [min] | LC retention time [7] [min] | LC retention time [8] [min] | LC retention time [9] [min] | LC retention time [10] [min] | LC retention time [11] [min] | LC retention time [12] [min] | LC retention time [13] [min] | LC retention time [14] [min] | LC retention time [15] [min] | LC retention time [16] [min] | LC retention time [17] [min] | LC retention time [18] [min] | LC retention time [19] [min] | LC retention time [20] [min] | LC retention time [26] [min] | other results
CC1NCCc2cc(O)c(O)cc21 (stereo unspecified) [1-METHYL-6,7-DIHYDROXY-1,2,3,4-TETRAHYDROISOQUINOLINE] | 0.92 | 2.66 | 1.83 | 0.9 | 2.74 | 1.34 | 17.8 | 0.93 | – | – | – | – | – | – | – | – | – | – | – | – | LC retention time [4]: 8.92 min
